Measurements taken from the supplement of paper PMC11997997.

Experiments:
[1] = test system: murine bone marrow-derived macrophages; test: area under cytotoxicity dose-response curve (AUC (% cytotoxicity x dose, relative)); higher = more cytotoxic; conditions: duration: 6 days; dose range: 0.13-80 uM, 8 points
In short: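 An 8-point, 2.5-fold dilution series (final 80–0.13 μM) was applied for 6 days at 37 °C in 5% CO2 to primary murine bone marrow-derived macrophages plated in opaque 384-well plates. Promega's CellTiter-Glo luminescence assay measured viability, and percent cytotoxicity was normalised against vehicle and positive control wells. The area under the dose–response curve, worked out in GraphPad Prism version 10, is the reported cytotoxicity measure.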

[2] = test system: Mycobacterium tuberculosis CDC1551 (intracellular, in murine BMDM); test: area under intracellular growth-inhibition dose-response curve (AUC (% inhibition x dose, relative)); higher = more potent; conditions: duration: 6 days; dose range: 0.13-80 uM, 8 points
In short: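 Each value is an area under the growth-inhibition dose–response curve, calculated with GraphPad Prism. Infected primary murine bone marrow-derived macrophages, carrying luciferase-expressing M. tuberculosis CDC1551 at multiplicity of infection 1, were treated for 6 days with an 8-dose, 2.5-fold series (final 80–0.13 μM) in 384-well opaque plates. Readout was by Bright-Glo luciferin assay, normalised to a reference drug control and the lowest-concentration wells.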

Row | Compound | area under cytotoxicity dose-response curve [1] | area under intracellular growth-inhibition dose-response curve [2]
1 | COc1cc(/C=N\NC(=O)c2sc(N)nc2C)cc(OC)c1OC | 140 | 35.1
2 | CC1CCCC(/C=N/c2ccc(C(=O)O)c(O)c2)=C1O (centres undefined) | < 0 | 135
3 | COc1ccc(NC(=S)Nc2ccc(N)c([N+](=O)[O-])c2)cc1 | 5.13 | 167
4 | CCCN(CCC)CC(O)Cn1cc(/C=C/C(=O)c2cccs2)c2ccccc21 (centres undefined) | 2.01 | 231
5 | CCC(=O)NC(=S)Nc1ccc(NC(=O)c2ccccc2[N+](=O)[O-])cc1 | 32.7 | 267
6 | Cc1ccc(C(C)C)c(OCc2n[n+](CC(=O)c3ccc(Cl)cc3)c3n2CCCCC3)c1.[Br-] | < 0 | 169
7 | Cc1cccc(OCC(=O)NCc2ccccc2)c1 | < 0 | 210
8 | O=C(NNC(=O)C1CCCC1)c1cc([N+](=O)[O-])cc([N+](=O)[O-])c1 | 12.3 | 109
9 | Cc1cc(C)n2nc3nc4c(cc3c2n1)CCCC4 | < 0 | 152
10 | CN(Cc1ccccc1)c1ccc2nnc(-c3ccccc3)n2n1 | < 0 | 169
11 | O=S1(=O)C=C(Sc2nc3ccccc3s2)c2ccccc21 | 179 | < 0
12 | COc1ccc(-c2n(C)c3ccccc3[n+]2CC(=O)OC2CC(C)CCC2C(C)C)cc1.[Cl-] (centres undefined) | 117 | 140
13 | Cc1ccc(OCCCC(=O)Nc2ccc(S(=O)(=O)N3CCOCC3)cc2)cc1 | 3.26 | 53.8
14 | CC[C@@H](C)[C@@H]1CN([C@@H](CN2CCC[C@H]2CN2C(N)=NC[C@@H]2Cc2ccccc2)C(C)C)C(=N)N1CCCC1CCCC1 | 98.8 | 83.6
15 | O=C(NC1CCCC1)c1cc2ccccc2o1 | 56.4 | 225
16 | CS(=O)(=O)Nc1ccccc1C(=O)OCC(=O)N1CCC(c2ccccc2)=N1 | < 0 | 115
17 | O=C(NC1CCCCC1)c1ccc2c(c1)OCO2 | 88.5 | 125
18 | COc1ccccc1/C=C1\SC(=S)N(CCC(=O)Nc2ccc(C(=O)O)c(O)c2)C1=O | < 0 | 124
19 | O=C(N/N=C/C=C/c1ccccc1)c1ccncc1 | < 0 | 266
20 | CCC[C@@H](CN1CCC[C@H]1CN1C(N)=NC[C@@H]1Cc1ccccc1)N1C[C@@H](Cc2ccccc2)N(CCCC2CCCC2)C1=N | 52.7 | 200
21 | CCSc1nnc(NC(=O)[C@H](C)N2C(=O)C3CC=CCC3C2=O)s1 (some centres undefined) | < 0 | 129
22 | C/C(=N\NC(=O)c1ccncc1)c1ccc(N2CCOCC2)cc1 | 16.1 | 255
23 | CCC(C)c1ccc(NC(=S)Nc2ccc(OC)cc2)cc1 (centres undefined) | 46.7 | 201
24 | NC(=S)N/N=C/c1ccc2c(c1)OCCO2 | < 0 | 263

Row | Compound | area under cytotoxicity dose-response curve [1] | area under intracellular growth-inhibition dose-response curve [2]
25 | Cc1ccc(C)c(NC(=O)CN2C(=O)NC(C)(c3ccc4c(c3)OCCO4)C2=O)c1 (centres undefined) | 4.48 | 44.8
26 | CCOc1ncccc1C(=O)Nc1cc2c(cc1Br)OCCO2 | 24.1 | 132
27 | COc1ccc(C(=O)Oc2cc(/C=N/NC(N)=S)ccc2OC)cc1 | 53.3 | 211
28 | Cc1ccc(S(=O)(=O)[O-])cc1.c1cnc2c(c1)ccc1ccc[nH+]c12 | 114 | 94
29 | O=C(COc1ccccc1)NCc1ccccc1 | 14.8 | 163
30 | O=C(N/N=C/c1c(F)c(F)c(F)c(F)c1F)c1cccc(S(=O)(=O)N2CCOCC2)c1 | 128 | 45.4
31 | COc1ccc(C2=NOC(CNC(N)=S)C2)cc1 (centres undefined) | 7.88 | 92.8
32 | COc1ccc(OC)c(/C=N/NC(=O)c2ccncc2)c1 | 66.9 | 254
33 | O=C(NC12CC3CC(CC(C3)C1)C2)c1ccc(Br)o1 | < 0 | 171
34 | O=C(NC1CCCCCCC1)c1ccc(Br)cc1 | < 0 | 268
35 | Cc1cc(NC(=O)c2ccc([N+](=O)[O-])o2)ccc1NC(=O)c1ccco1 | 88.8 | 63.8
36 | Cc1cccc(-c2nsc(SCC(=O)N3CCCC3)n2)c1 | 98 | 224
37 | CCOC(=O)N=Nc1c2nc3nonc3[nH]c-2c2ccccc12 | 186 | 136
38 | O=C(NC1CCCCC1)c1ccc([N+](=O)[O-])cc1 | 15.6 | 218
39 | O=c1c2cc(Cl)ccc2oc2nc3n(c(=O)c12)CCCS3 | 33.5 | 216
40 | CN(C)CCSc1nc2cc(S(=O)(=O)N3CCCCC3)ccc2o1 | 11.5 | 1.9
41 | CCOc1ccccc1OCCCC(=O)Nc1cccc(S(=O)(=O)N2CCOCC2)c1 | 99 | 74
42 | CCNC(=S)Nc1ccc(OCc2nc3ccccc3s2)cc1 | 35.3 | 273
43 | CC(C)OC(=O)c1c2c(n3ccccc13)C(=O)c1ccccc1C2=O | 36.2 | 209
44 | COc1ccc(C(C)NC(=O)c2ccccc2)cc1 (centres undefined) | 237 | 222
45 | CCOC(=O)c1c(-c2ccccc2)oc2ccc(O)c(CN3CCCC3)c12 | < 0 | 278
46 | S=C(NCc1ccc(Cl)cc1)NC12CC3CC(CC(C3)C1)C2 | < 0 | 157
47 | CCC(=O)N1CCN(c2ccc(NC(=S)NC(=O)COc3ccccc3)cc2)CC1 | 76.2 | 194
